Laboratory results: doi:10.1101/2025.08.08.668114, “Structure-Activity Relationship Studies Towards Analogues of Pleconaril as Novel Enterovirus-D68 Capsid-Targeting Antivirals” (bioRxiv, 2025)
≈ marks a conversion by molar mass, not a printed value. Where two headings read alike, the source gives them in different places.

Tests used:
[1] = tested on: human pregnane-X receptor (PXR); parameters: method as in PMID 37327878; details: cited from earlier work
[2] = tested on: MDCKII cells transfected with human MDR1 (P-gp); details: dog, MDCK-MDR1
[3] = Human microsomal stability; details: for microsomal CLint at 2 µM: human, pH 7.4
[4] = Mouse microsomal stability; details: pH 7.4
P-gp (human MDR1) [5] = experiment: in vitro; details: dog, MDCK-MDR1, MDCKII-MDR1 Papp A→B
[6] = LogD at pH 7.4, shake-flask method; details: for logD: pH 7.4
[7] = tested on: EV-D68 (strain US/MO/14-18949); experiment: EV-D68 antiviral screening assay in RD cells
physchem = details: kinetic from dmso stock
in vitro = details: human
EV-D68 = details: in-vitro; read-out: Published EV-D68 EC50; cited from earlier work
[8] = tested on: cytochrome P450 (CYP) enzyme; parameters: method as in PMID 12802751; details: after repeated dosing; cited from earlier work
RD cells = experiment: RD cell cytotoxicity by MTT assay on uninfected cells; details: geometric mean
[9] = tested on: cytochrome P450 (CYP) enzyme; parameters: method as in PMID 37327878; details: cited from earlier work
[10] = Kinetic aqueous solubility (KSOL), shake-flask method
P-gp (human MDR1) [11] = experiment: MDCKII-MDR1 A→B permeability; details: dog, MDCK-MDR1
[12] = tested on: MDCKII cells transfected with human MDR1 (P-gp); experiment: MDCKII-MDR1 A→B permeability; details: apical to basolateral
[13] = Enterovirus D, EVD68, RD, read-out: EC50 EV-D68, RD cells, strain US/MO/14-18949, geometric mean
[14] = Enterovirus D, EVD68, RD, read-out: EV-D68 pEC50, pEC50 = −log10(EC50) (converted), RD cells

Row | microsomal CLint at 2 µM ([4]; liver microsomes) | Papp A→B (P-gp (human MDR1) [5]) | logD [6] | EC50 [7, 13] | solubility kinetic (physchem) | microsomal CLint at 2 µM ([3]; liver microsomes) | Compound | CC50 (in vitro; RD cells, uninfected) | further results
1 | – | – | – | > 30.4 µM | – | – | Cc1cc(-c2noc(C(F)(F)F)n2)ccc1OCCNc1cc(C(=O)N(C)C)no1 [Compound 24] | > 50 µM | –
2 | – | – | – | 2.87 µM | – | – | CN(C)C(=O)c1cc(CCCn2ccc3cc(C#N)ccc32)on1 [Compound 25] | > 50 µM | –
3 | 133 µL/min/mg | 15.5 ×10⁻⁶ cm/s | 3.8 | 1.89 µM | 28 µM (≈ 12.2 µg/mL) | 30 µL/min/mg | CN(C)C(=O)c1cc(CCCn2ccc3cc(-c4noc(C(F)(F)F)n4)cnc32)on1 [Compound 29] | > 100 µM | –
4 | 29 µL/min/mg | 3.5 ×10⁻⁶ cm/s | 3 | 8.43 µM | 30 µM (≈ 13 µg/mL) | 20 µL/min/mg | CN(C)C(=O)c1cc(CCCn2ccc3cc(-c4noc(C(F)(F)F)n4)ncc32)on1 [Compound 30] | > 100 µM | –
5 | – | – | – | 4.87 µM | – | – | CN(C)C(=O)c1cc(-c2cccc(Oc3ccc(-c4noc(C(F)(F)F)n4)cc3)c2)on1 [Compound 31] | > 50 µM | –
6 | – | – | – | 4.35 µM | – | – | Cc1cc(-c2noc(C(F)(F)F)n2)ccc1Oc1cncc(-c2cc(C(=O)N(C)C)no2)c1 [Compound 32] | > 50 µM | –
7 | 38 µL/min/mg | 4 ×10⁻⁶ cm/s | 4.2 | 0.437 µM | < 10 µM | 24 µL/min/mg | Cc1cc(-c2noc(C(F)(F)F)n2)ccc1O[C@@H]1CCN(c2cc(C(=O)N(C)C)no2)C1 [Compound 33] | > 50 µM | Solubility, Kinetic (KSOL) [10]: 9 µM (≈ 4.06 µg/mL)
8 | 41 µL/min/mg | 2.5 ×10⁻⁶ cm/s | 4.2 | 0.058 µM | < 10 µM | 22 µL/min/mg | Cc1cc(-c2noc(C(F)(F)F)n2)ccc1O[C@H]1CCN(c2cc(C(=O)N(C)C)no2)C1 [Compound 34] | > 50 µM | Solubility, Kinetic (KSOL) [10]: 7 µM (≈ 3.16 µg/mL); EC50 [7, 14]: 0.0589 µM; fold more potent than 33 (EV-D68) ([7]; relative to enantiomer 33): 10 fold
9 | – | – | – | – | – | – | Cc1cc(-c2noc(C(F)(F)F)n2)ccc1OCCCc1nnc(C(F)(F)F)o1 [Compound 38] | > 50 µM | EC50 ([7]; Enterovirus D, EVD68, RD, read-out: EC50 EV-D68 (Table 4), RD cells, Table 4 head): 39.9 µM
10 | – | – | 3.1 | – | 198 µM (≈ 61.8 µg/mL) | – | C#CCc1ccc(OCCCc2cc(C(=O)N(C)C)no2)cc1 [Compound 55] | – | EC50 [7, 14]: 0.617 µM
11 | – | – | – | – | – | – | CCO/N=C/c1ccc(OCCC2CCN(c3ccc(C)nn3)CC2)cc1 [Compound S-57, BTA-188] | – | CC50 (RD cells): > 50 µM
12 | – | – | – | – | – | – | Cc1nc(-c2ccc(OCCCCCN3CCN(c4ccnc(N)c4)C3=O)cc2)no1 [Compound S-59, NLD-22] | – | CC50 (RD cells): > 25.6 µM
13 | – | – | – | – | – | – | Nc1nc(-c2ccccc2)nc2[nH]nc(Nc3ccc(C(F)(F)F)cc3)c12 [Compound S-60, OBR-5-340, reference compound] | – | Clint HLM ([3]; human liver microsomes): < 10 µL/min/mg; Solubility, Kinetic (KSOL) [10]: 2 µM (≈ 0.741 µg/mL); CC50 (RD cells): > 50 µM; LogD (pH 7.4) ([6]; pH 7.4, shake-flask): ≥ 4.5; EC50 ([7]; read-out: EC50 EV-D68, RD cells, strain US/MO/14-18949, geometric mean): 7.16 µM; MDCKII-MDR1 Papp A→B [12]: 1.8 10^−6 cm s^−1

Row | Compound | microsomal CLint at 2 µM ([4]; liver microsomes) | Papp A→B (P-gp (human MDR1) [5]) | logD [6] | EC50 [7, 13] | solubility kinetic (physchem) | microsomal CLint at 2 µM ([3]; liver microsomes) | CC50 (in vitro; RD cells, uninfected) | further results
14 | Cc1cc(CCCOc2c(C)cc(-c3noc(C(F)(F)F)n3)cc2C)on1 [Compound 1, Pleconaril] | 22 µL/min/mg | 1.4 ×10⁻⁶ cm/s | 4.2 | < 0.0295 µM | 18 µM (≈ 6.86 µg/mL) | – | > 50 µM | agonism of human PXR [1]: Neither 1 nor 2 are agonists; MDCKII-MDR1 Papp A→B [2]: 1.42 10^−6 cm s^−1; microsomal CLint at 2 µM ([3]; microsomes): 12 µL/min/mg; EC50 ([7]; read-out: EC50 EV-D68, RD cells, strain US/MO/14-18949, geometric mean, listed as Pleconaril (1)): < 0.029 µM; EC50 (EV-D68): 0.43 µM; CYP induction (side effect) [8]: well-known side effect
15 | Cc1cc(-c2noc(C(F)(F)F)n2)ccc1OCCCc1cc(C(=O)N(C)C)no1 [Compound 2, CP-11526092, reference compound] | 24 µL/min/mg | 2.3 ×10⁻⁶ cm/s | ≥ 4.5 | 0.043 µM | 9 µM (≈ 3.82 µg/mL) | 11 µL/min/mg | > 42 µM | agonism of human PXR [1]: Neither 1 nor 2 are agonists; MDCKII-MDR1 Papp A→B [2]: 2.26 10^−6 cm s^−1; CC50 (RD cells; listed as CP-11526092 (2)): > 50 µM; EC50 [7, 14]: 0.0437 µM; Lipophilic Cellular Efficiency (LipCellE) ([7]; cellular pEC50 − AlogP98): > 3; EC50 (EV-D68): 0.042 µM; CYP induction according to in-vitro data [9]: still present
16 | CCOC(=O)c1ccc(OCCC2CCN(c3ccc(C)nn3)CC2)cc1 [Compound S-58, Pirodavir, reference compound] | – | – | – | 0.277 µM | – | – | – | microsomal CLint at 2 µM ([3]; microsomes): 708 µL/min/mg; microsomal CLint at 2 µM ([4]; microsomes): 580 µL/min/mg; CC50 (in vitro): > 50 µM; Papp A→B (P-gp (human MDR1) [11]): 9 ×10⁻⁶ cm/s
